This experiment addresses T1, PDGFR-β (Homo sapiens, UniProt P09619).
T1 construct: purchased Cell Signaling Technology CO
In words: Protein kinase activity by ELISA in vitro, PDGFR-β. In kind it is biochemical. Particulars: concentration of 10^−7 mol/L; read-out: kinase inhibition ratio, PDGFR-β. An excerpt: An ELISA (Enzyme-Linked Immunosorbent Sandwich Assay) procedure may be used to detect and measure the level of protein tyrosine kinase activity. Tyrosine kinases such as VEGFR-2, PDGFR-β and c-Kit etc. catalyze the phosphorylation reaction of ATP and biotin-labeled peptide substrate, which will be ceased when the kinase activity is inhibited. According to the principle of ELISA, a monoclonal antibody can react with phosphorylated substrate specially, so biotin-labeled substrate is binded to streptavidin-coated ELISA plate, and then binded to a HRP-labeled goat anti-mouse antibody. Finally TMB is added for a color reaction and the value of A450-A630 is read by ELISA plate reader. The OD value can reflect the inhibitory activity of the VEGFR-2, PDGFR-β, c-Kit tyrosine kinases etc. treated with the test compounds at the different concentrations. So, the assay may be used to measure the inhibition ratio of the compounds for the tyrosine kinase activity. Similar assays can be designed along the same lines for any PK using techniques well known in the art. Tyrosine kinases such as VEGFR-2, PDGFR-β and c-Kit etc. catalyze the phosphorylation reaction of ATP and biotin-labeled peptide substrate, which will be ceased when the kinase activity is inhibited. According to the principle of ELISA, a monoclonal antibody can react with phosphorylated substrate specially, so biotin-labeled substrate is binded to streptavidin-coated ELISA plate, and then binded to a HRP-labeled goat anti-mouse antibody. Finally TMB is added for a color reaction and the value of A450-A630 is read by ELISA plate reader. The OD value can reflect the inhibitory activity of the VEGFR-2, PDGFR-β c-Kit tyrosine kinases treated with the test compounds at the different concentrations. So, the assay may be used to measure the inhibition ratio of the compounds for the tyrosine kinase activity. Similar assays can be designed along the same lines for any PK using techniques well known in the art. VEGF Receptor 2, PDGF Receptor-beta and c-kit kinase assay kit (include kinase, 1.25M DTT, substrate peptide, 10 mM ATP, P-[…] Mouse antibody, 4×HTScan tyrosine kinase buffer), Cell Signaling Technology CO.; HRP labeled goat anti mouse IgG, Protein Tech CO.; TMB, Pierce CO.; Streptavidin Microtitration Plate, Greiner Bio-one CO.; Infinite M200 Reader, Tecan CO. 1.2.1 Immediately transfer enzyme from -80° C. to ice. Allow enzyme to thaw on ice then at 4° C. and centrifugate transiently to the bottom of centrifuge tube, then lay back on ice quickly 1.2.2 Add 10 μl of DTT (1.25 M) to 2.5 ml of 4×HTScan tyrosine kinase buffer (240 mM HEPES pH 7.5, 20 mM MgCl2, 20 mM MnCl2, 12 μM Na3VO4). Transfer 0.6 ml of DTT/Kinase buffer to each enzyme tube to make 4× reaction Cocktail. Incubate 12.5 μl of the 4× reaction cocktail with 12.5 μl/well prediluted compound of interest for 5 minutes at room temperature, and set blank control, free-enzyme control, negative control and positive control. 1.2.3 Add 10 μl 10 mM ATP to 1.25 ml 6 μM substrate peptide. Dilute the mixture with dH20 to 2.5 ml to make 2×ATP/substrate cocktail. Add 25 μl of 2×ATP/substrate cocktail to 25 μl/well preincubated reaction cocktail/compound. Incubate reaction plate at room temperature for 30 minutes. 1.2.4 Add 50 μl/well stop Buffer (50 mM EDTA, pH 8) to stop the reaction. Transfer 25 μl of each reaction and 75 μl dH2O/well to a 96-well streptavidin coated plate and incubate at room temperature for 60 minutes. Wash three times with 200 μl/well PBS/T(1×PBS, 0.05% Tween-20). 1.2.5 Dilute primary antibody, Phospho-Tyrosine mAb (P-[…]), 1:500 in PBS/T with 1% BSA. Add 100 μl/well primary antibody. Incubate at room temperature for 60 minutes. Wash three times with 200 μl/well PBS/T(1×PBS, 0.05% Tween-20). 1.2.6 Prepare appropriate dilution of HRP labeled secondary antibody, 1:500 in PBS/T with 1% BSA. Add 100 μl/well secondary antibody solution. Incubate at room temperature for 30 minutes. […]

T1 sequence (P09619 33-1106): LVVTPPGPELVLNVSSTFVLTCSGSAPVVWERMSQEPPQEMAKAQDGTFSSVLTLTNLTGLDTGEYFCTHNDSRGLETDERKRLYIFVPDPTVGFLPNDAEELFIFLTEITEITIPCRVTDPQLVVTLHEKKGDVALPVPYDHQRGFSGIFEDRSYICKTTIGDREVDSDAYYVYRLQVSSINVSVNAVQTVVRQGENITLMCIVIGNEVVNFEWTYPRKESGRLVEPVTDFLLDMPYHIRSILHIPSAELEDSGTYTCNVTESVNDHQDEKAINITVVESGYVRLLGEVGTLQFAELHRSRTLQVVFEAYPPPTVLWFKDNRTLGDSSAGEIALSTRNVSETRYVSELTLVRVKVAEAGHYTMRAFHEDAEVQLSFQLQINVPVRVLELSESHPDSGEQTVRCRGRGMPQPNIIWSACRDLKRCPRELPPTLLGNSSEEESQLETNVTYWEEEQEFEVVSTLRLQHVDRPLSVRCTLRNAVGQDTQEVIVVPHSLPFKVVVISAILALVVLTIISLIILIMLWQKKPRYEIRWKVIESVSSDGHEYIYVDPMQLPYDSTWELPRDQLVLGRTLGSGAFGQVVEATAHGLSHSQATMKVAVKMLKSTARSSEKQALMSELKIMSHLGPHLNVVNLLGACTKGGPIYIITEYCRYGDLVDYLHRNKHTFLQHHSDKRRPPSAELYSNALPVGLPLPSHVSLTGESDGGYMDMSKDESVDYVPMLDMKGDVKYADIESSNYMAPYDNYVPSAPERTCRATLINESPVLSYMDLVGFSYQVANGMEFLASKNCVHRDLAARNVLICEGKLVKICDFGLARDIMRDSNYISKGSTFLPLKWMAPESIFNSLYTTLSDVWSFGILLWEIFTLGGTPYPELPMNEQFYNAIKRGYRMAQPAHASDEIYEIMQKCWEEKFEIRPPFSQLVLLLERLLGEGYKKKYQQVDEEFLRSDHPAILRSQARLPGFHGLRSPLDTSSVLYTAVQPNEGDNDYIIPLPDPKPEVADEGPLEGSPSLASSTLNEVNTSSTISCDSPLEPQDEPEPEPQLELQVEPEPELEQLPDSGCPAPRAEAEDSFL

As for `CCN(CC)CCNC(=O)c1c(C)[nH]c2c1CCC/C2=C1/C(=O)Nc2ccc(F)cc21` [I-2, N-(2-(diethylamino)ethyl)-2-methyl-7-[1,2-dihydro-5-fluoro-2-oxo-3H-indol-(Z)-3-ylidene]-4,5,6,7-tetrahydro-1H-indole-3-carboxamide], the inhibition at 0.1 µM was determined as 90%.

As to `CCN(CC)CCNC(=O)c1c(C)[nH]c2c1CCC/C2=C1/C(=O)Nc2ccc(Cl)cc21` [I-3, N-(2-(diethylamino)ethyl)-2-methyl-7-[1,2-dihydro-5-chloro-2-oxo-3H-indol-(Z)-3-ylidene]-4,5,6,7-tetrahydro-1H-indole-3-carboxamide], the inhibition at 0.1 µM is 88%.

Consider `CCN(CC)CCNC(=O)c1c(C)[nH]c2c1CCC/C2=C1/C(=O)Nc2ccc(C)cc21` [I-4, N-(2-(diethylamino)ethyl)-2-methyl-7-[1,2-dihydro-5-methyl-2-oxo-3H-indol-(Z)-3-ylidene]-4,5,6,7-tetrahydro-1H-indole-3-carboxamide], for which the inhibition at 0.1 µM came out at 86%.

`CCN(CC)CCNC(=O)c1c(C)[nH]c2c1CCC/C2=C1/C(=O)Nc2ccccc21` [I-5, N-(2-(diethylamino)ethyl)-2-methyl-7-[1,2-dihydro-2-oxo-3H-indol-(Z)-3-ylidene]-4,5,6,7-tetrahydro-1H-indole-3-carboxamide]: the inhibition at 0.1 µM turned out to be 87%.

For `Cc1[nH]c2c(c1C(=O)NCCN(C)C)CCC/C2=C1/C(=O)Nc2ccc(F)cc21` [I-6, N-(2-(dimethylamino)ethyl)-2-methyl-7-[1,2-dihydro-5-fluoro-2-oxo-3H-indol-(Z)-3-ylidene]-4,5,6,7-tetrahydro-1H-indole-3-carboxamide], the inhibition at 0.1 µM was determined as 85%.

Turning to `Cc1[nH]c2c(c1C(=O)NCCCN(C)C)CCC/C2=C1/C(=O)Nc2ccc(Cl)cc21` [I-7, N-(3-(dimethylamino)propyl)-2-methyl-7-[1,2-dihydro-5-chloro-2-oxo-3H-indol-(Z)-3-ylidene]-4,5,6,7-tetrahydro-1H-indole-3-carboxamide], the inhibition at 0.1 µM came out at 86%.

On to `Cc1[nH]c2c(c1C(=O)NCCO)CCC/C2=C1/C(=O)Nc2ccccc21` [I-8, N-(2-hydroxyethyl)-2-methyl-7-[1,2-dihydro-2-oxo-3H-indol-(Z)-3-ylidene]-4,5,6,7-tetrahydro-1H-indole-3-carboxamide], for which the inhibition at 0.1 µM came to 89%.

Regarding `CCN(CC)CC(O)CNC(=O)c1c(C)[nH]c2c1CCC/C2=C1/C(=O)Nc2ccccc21` (stereo not drawn) [I-63, N-(3-(diethylamino)-2-hydroxypropyl)-2-methyl-7-[1,2-dihydro-2-oxo-3H-indol-(Z)-3-ylidene]-4,5,6,7-tetrahydro-1H-indole-3-carboxamide], the inhibition at 0.1 µM is 87%.

Turning to `Cc1[nH]c2c(c1C(=O)NCC(O)CN1CCCC1)CCC/C2=C1/C(=O)Nc2ccccc21` (stereo not drawn) [I-70, N-(2-hydroxy-3-(pyrrolidin-1-yl)propyl)-2-methyl-7-[1,2-dihydro-2-oxo-3H-indol-(Z)-3-ylidene]-4,5,6,7-tetrahydro-1H-indole-3-carboxamide], the inhibition at 0.1 µM was found to be 85%.

The values above are taken from patent US8084621B2, “3-Pyrrolo[b]cyclohexylene-2-dihydroindolinone derivatives and uses thereof” (Jiangsu Simcere Pharmaceutical R&D Co. Ltd., priority 2006, dated 2011).
